Assays:
rat 5-HT7 receptor = conditions: cited from earlier work; for pharmacological profile (rank order of affinity): rat 5-HT7, [125I]LSD and [3H]5-HT
human 5-HT7 receptor [1] = biological target: T1, human 5-HT7 receptor (Homo sapiens, UniProt P34969); conditions: cited from earlier work; for pharmacological profile (rank order of affinity): human 5-HT7, [3H]5-HT competition
[2] = tested on: contractile 5-HT receptor in the canine coronary artery; conditions: agonist alone, vessels under basal tone, as previously reported (Cushing et al.); cited from earlier work
[3] = biological target: T2, 5-HT7 receptor in the dog coronary artery (Canis lupus familiaris, UniProt A0A8I3S709); test: 5-HT-induced relaxation of endothelium-denuded canine coronary artery rings precontracted with PGF2α (Schild / dissociation constant analysis); type: cell-based; conditions: for slope of the Schild regression: Schild plot; for slope: Table 2, Schild regression; for blockade of 5-HT-induced relaxation: compounds III and V 1 μM, compound IV 10-100 nM, 1 hr incubation; for pEC50 values between vehicle and compound-treated tissues: 1 μM, p<0.05, Student's t-test; for relaxant activity in canine coronary artery: agonist
T2 construct: The left anterior descending and circumflex coronary arteries were dissected from the hearts; from tissue; host or cells: dog left anterior descending and circumflex coronary artery rings (mongrel dogs), endothelium removed
Procedure: (§1) Hearts were obtained from mongrel dogs anesthetized with sodium pentobarbital (30 mg/kg, i.v.) and placed in oxygenated modified Krebs' solution of the following composition (millimolar): NaCl, 118; KCl, 4.6; CaCl2, 1.6; KH2 PO4, 1.2; MgSO4 1.2, glucose, 10; NaHCO3 24.8 (pH 7.4). The left anterior descending and circumflex coronary arteries were dissected from the hearts, cleaned of fat and adhering tissue and cut into rings (approximately 2-3 mm outer diameter and 4-5 mm in length). The intimal surface of the rings was gently rubbed with a pair of forceps to remove the endothelium. Tissues were then mounted between two stainless steel hooks and placed in 10 ml organ chambers constantly exposed to oxygenated modified Krebs' solution (95% O2 /5% CO2; pH 7.4; 37° C.). Tissues were equilibrated for 1 hour under an initial optimal passive force of 4 g determined previously from length-tension experiments. The buffer was replaced every 15 minutes during equilibration. Isometric force was measured with Statham UC3 force transducers connected to a Beckman dynograph (R611). After 1 hr equilibration, tissues were depolarized twice with 50 mM KCl for 30 min with a 20 min washing period between. The integrity of the endothelium was examined with acetylcholine (1 μM), bradykinin (100 nM), or the ionophore A23187 (1 μM). Rings that relaxed to these agents were not used in this study.
(§2) Cumulative concentration-response curves to 5-HT were generated in tissues incubated with either vehicle or antagonist for 1 hr. In some experiments contraction was measured in tissues under basal tone upon the cumulative addition of 5-HT. These tissues were treated with prazosin (1 μM) to block any potential a adrenoceptor activation and in the absence or presence of antagonist.
(§3) All results are expressed as mean ±S.E. where "n" represents the number of rings examined. No more than two rings were used from each animal for each compound studied. The relaxation data is expressed as percent relaxation of the contraction produced by PGF2α. The contraction data is expressed as percent of a maximal KCl (50 mM) contraction. The EC50 was the concentration of the agonist producing half-maximal response and was determined by least squares linear regression analysis of the linear portion or the agonist concentration-response curve and expressed as -log C50 (pEC50)
Apparent antagonist dissociation constants (KB) were determined for each antagonist according to the following equation: [formula] where (B) is the concentration of the antagonist and dose ratio is the EC50 of the agonist in the presence of the antagonist divided by the EC50 of the agonist in vehicle treated tissues. […] Significant differences between vehicle and antagonist treated tissues were determined with Student's t-test. The alpha value was set a priori at 0.05.
The data was also analyzed in accord with the procedure of Arunlakshana and Schild (1959). The dose ratio was determined at various concentrations of antagonist compound II or compound IV. If blockade is competitive under equilibrium conditions a plot of the logarithm (dose ratio--1) against the negative logarithm of the molar concentration of antagonist should yield a straight line whose slope is not different from unity and whose intercept on the abscissa is the pA2, which is generally considered to be equivalent to -log KB.

[4] = Bioavailability after oral administration in rats; type: in vivo, rat
human 5-HT7 receptor [5] = biological target: T1, human 5-HT7 receptor; test: Receptor binding at the human 5-HT7 receptor
Description: The general chemical structure for three particularly useful compounds of the invention (compounds III-V) are shown below: [drawing 3]
The KD and --logKB value for compound II, a known 5-HT7 antagonist, and two compounds employed by the present invention, compound III and IV, are shown in Table 1.

5-HT7 receptor = conditions: expressed in mammalian cells; cited from earlier work
[6] = tested on: contractile 5-HT receptor in the canine coronary artery; test: Contraction of endothelium-denuded canine coronary artery under basal tone; type: cell-based
Procedure: as §1
as §2, with “Tissues prepared as described in Example 1 were precontracted with PGF2α (10 μM) which produced a tonic contraction that remained at or above 92.8±2.1% (n=14) of the original maximum force throughout the experiment. Cumulative” for “Cumulative”
as §3

[7] = compared with ester compounds II and V

T2 sequence (A0A8I3S709 1-435): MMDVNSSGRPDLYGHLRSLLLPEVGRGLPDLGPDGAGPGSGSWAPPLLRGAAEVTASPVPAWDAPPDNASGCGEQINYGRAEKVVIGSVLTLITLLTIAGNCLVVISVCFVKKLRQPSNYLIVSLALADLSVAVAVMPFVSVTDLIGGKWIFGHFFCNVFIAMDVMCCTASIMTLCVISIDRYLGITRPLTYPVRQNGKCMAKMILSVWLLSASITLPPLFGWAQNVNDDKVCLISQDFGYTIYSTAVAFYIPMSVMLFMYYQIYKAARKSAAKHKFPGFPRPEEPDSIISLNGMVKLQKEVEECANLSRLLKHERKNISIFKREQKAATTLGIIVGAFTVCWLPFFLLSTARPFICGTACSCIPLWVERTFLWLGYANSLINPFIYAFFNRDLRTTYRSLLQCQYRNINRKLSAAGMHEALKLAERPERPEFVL
T1 sequence (P34969 1-445 isoform P34969-2): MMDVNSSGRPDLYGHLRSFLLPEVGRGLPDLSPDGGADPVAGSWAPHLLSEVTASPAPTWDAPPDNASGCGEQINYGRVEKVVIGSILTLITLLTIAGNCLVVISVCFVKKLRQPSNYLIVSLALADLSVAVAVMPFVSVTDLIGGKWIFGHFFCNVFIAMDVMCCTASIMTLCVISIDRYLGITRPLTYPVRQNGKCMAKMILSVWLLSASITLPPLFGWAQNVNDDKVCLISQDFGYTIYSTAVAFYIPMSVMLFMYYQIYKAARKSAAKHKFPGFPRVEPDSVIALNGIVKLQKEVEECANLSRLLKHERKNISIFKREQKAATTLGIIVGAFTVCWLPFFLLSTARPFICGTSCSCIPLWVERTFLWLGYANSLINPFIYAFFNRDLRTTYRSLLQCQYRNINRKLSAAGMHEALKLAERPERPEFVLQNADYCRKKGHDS

Compound: CCCN(CCC)C1CCc2cccc(O)c2C1 (stereo not shown) [8-OH DPAT, 8-hydroxy-2-(di-n-propyl-amino)-tetralin]
- pharmacological profile (rank order of affinity) (rat 5-HT7 receptor): 5CT>5MeOT≥5HT>8-OH-DPAT
- pharmacological profile (rank order of affinity) (human 5-HT7 receptor [1]): 5CT>5 MeOT≥5HT>8-OH DPAT

Compound: COc1ccc2[nH]cc(CCN)c2c1 [Compound 5-MeOT, 5-methoxytryptamine]
- pharmacological profile (rank order of affinity) (rat 5-HT7 receptor): 5CT>5MeOT≥5HT>8-OH-DPAT
- pharmacological profile (rank order of affinity) (human 5-HT7 receptor [1]): 5CT>5 MeOT≥5HT>8-OH DPAT
- contractile response of agonist [2]: produced a biphasic contractile response

Compound: CC(O)C(C)OC(=O)C1CC2c3cccc4c3c(cn4C(C)C)CC2N(C)C1 (stereo not shown) [Compound II]
- Kb [3]: 316 nM
- Schild slope versus unity ([3]; FIG. 1 lower panel): not significantly different from unity
- slope of the Schild regression [3]: 0.92
- slope [3]: 0.92
- maximum relaxant response to 5-HT ([3]; compound II 0.3-10 μM): did not alter the maximum relaxant response
- blockade of 5-HT-induced relaxation ([3]; compound II 0.3-10 μM): shifted the concentration-response curve to 5-HT significantly to the right

Compound: CC(C)n1cc2c3c(cccc31)C1CC(C(=O)NC3CCCCC3)CN(C)C1C2 (stereo not shown) [Compound III]
- bioavailability [4, 7]: greater bioavailability than the ester compounds II and V
- binding affinity to the human 5-HT7 receptor (in words) (human 5-HT7 receptor [5]): high binding affinity
- Kb [3]: 200 nM
- pEC50 values between vehicle and compound-treated tissues [3]: significantly different
- blockade of 5-HT-induced relaxation ([3]; compound II 0.3-10 μM): blocked 5-HT-induced relaxation in endothelium-denuded canine coronary artery rings in a competitive manner

Compound: NCCc1c[nH]c2ccc(O)cc12 [Compound 5-HT, 5-hydroxytryptamine]
- pharmacological profile (rank order of affinity) (rat 5-HT7 receptor): 5CT>5MeOT≥5HT>8-OH-DPAT
- pharmacological profile (rank order of affinity) (human 5-HT7 receptor [1]): 5CT>5 MeOT≥5HT>8-OH DPAT
- contractile response of agonist [2]: produced a biphasic contractile response

Compound: CN1CCN(C2=Nc3ccccc3Oc3ccc(Cl)cc32)CC1 [loxapine]
- affinity for the 5-HT7 receptor (5-HT7 receptor): high affinity

Compound: CNS(=O)(=O)Cc1ccc2[nH]cc(CCN(C)C)c2c1 [sumatriptan]
- relaxant activity in canine coronary artery [3]: lacking relaxant activity

Compound: COC1CCC(OC(=O)C2CC3c4cccc5c4c(cn5C(C)C)CC3N(C)C2)CC1 (stereo not shown) [Compound V]
- bioavailability ([4]; compared with compound II): higher bioavailability than compound II
- Kb [3]: 398 nM
- pEC50 values between vehicle and compound-treated tissues [3]: significantly different
- blockade of 5-HT-induced relaxation ([3]; compound II 0.3-10 μM): blocked 5-HT-induced relaxation in an apparently competitive manner

Compound: CN(C)CCC=C1c2ccccc2CCc2ccccc21 [amitriptyline]
- affinity for the 5-HT7 receptor (5-HT7 receptor): high affinity

Compound: CN1CCN(C2=Nc3cc(Cl)ccc3Nc3ccccc32)CC1 [clozapine]
- affinity for the 5-HT7 receptor (5-HT7 receptor): high affinity

Compound: CC(C)n1cc2c3c(cccc31)C1CC(C(=O)NC3CCCC3O)CN(C)C1C2 (stereo not shown) [Compound IV]
- bioavailability [4, 7]: greater bioavailability than the ester compounds II and V
- binding affinity to the human 5-HT7 receptor (in words) (human 5-HT7 receptor [5]): high binding affinity
- effect on contractile response produced by 5-HT and 5-MeOT ([6]; 1 μM, basal tone): not affecting the contractile response
- effect on relaxant phase of 5-HT and 5-MeOT response ([6]; 1 μM, basal tone): significantly attenuated the relaxant phase
- effect on sumatriptan-induced contraction ([6]; 1 μM, basal tone, FIG. 7): did not significantly affect sumatriptan-induced contraction
- Kb [3]: 5.01 nM
- slope of the Schild regression [3]: 0.98
- slope [3]: 0.98
- blockade of 5-HT-induced relaxation ([3]; compound II 0.3-10 μM): blocked 5-HT-induced relaxation in endothelium-denuded canine coronary artery rings in a competitive manner

Compound: CCCCC[C@H](O)/C=C/[C@@H]1[C@@H](C/C=C\CCCC(=O)O)[C@@H](O)C[C@H]1O [PGF2α]
- contraction retained throughout the experiment ([3]; PGF2α 10 μM, of the original maximum force, n=14): ≥ 92.8±2.1%

Compound: NCCc1c[nH]c2ccc(C(N)=O)cc12 [Compound 5-CT, 5-carboxamidotryptamine]
- pharmacological profile (rank order of affinity) (rat 5-HT7 receptor): 5CT>5MeOT≥5HT>8-OH-DPAT
- binding affinity of 5CT over serotonin (rat 5-HT7 receptor; rat 5-HT7): higher binding affinity of 5CT over serotonin
- pharmacological profile (rank order of affinity) (human 5-HT7 receptor [1]): 5CT>5 MeOT≥5HT>8-OH DPAT
- affinity of 5CT over serotonin (human 5-HT7 receptor [1]; human 5-HT7): greater affinity of 5CT over serotonin
- contraction by agonist ([6]; agonist alone, under basal tone or precontracted): did not significantly contract coronary arteries
- contraction by agonist in the presence of compound IV ([6]; compound IV 1 μM, basal tone): concentration-dependently contracted canine coronary artery
- relaxant activity in canine coronary artery [3]: potent relaxant agonist
- affinity of canine coronary artery relaxant receptor for 5CT versus serotonin [3]: highest affinity for 5-HT7 receptors
- affinity of canine coronary artery relaxant receptor for 5CT versus serotonin ([3]; listed as 5CT): greater affinity for 5CT than for the endogenous agonist serotonin

— patent US5880134A, “Method for using ergoline compounds to effect physiological and pathological functions at the 5-HT7 receptor” (Eli Lilly and Company, priority 1997, dated 1999)
